In PubChem BioAssay (NCI):
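Following 48 hours of exposure in 96-well plates, responses at five concentrations were used to interpolate endpoints linearly. The concentration for 50% growth inhibition is given as GI50. TGI marks complete inhibition of growth.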

What was measured:
Assay in all cases: DTP human tumour cell line panel, 48 h
[1] = test system: OVCAR-8 ovarian
[2] = test system: OVCAR-4 ovarian
[3] = test system: CAKI-1 renal
[4] = test system: HCT-15 colon
[5] = test system: HOP-92 NSCLC
[6] = test system: HCT-116 colon
[7] = test system: MDA-MB-435
[8] = test system: SK-MEL-28 melanoma
[9] = test system: ACHN renal
[10] = test system: K-562 leukemia
[11] = test system: SR leukemia
[12] = test system: HCC-2998 colon
[13] = test system: OVCAR-5 ovarian
[14] = test system: NCI-H23 lung
[15] = test system: MOLT-4 leukemia
[16] = test system: SF-295 CNS
[17] = test system: A549 NSCLC
[18] = test system: NCI/ADR-RES ovarian
[19] = test system: HOP-62 NSCLC
[20] = test system: TK-10 renal
[21] = test system: SF-268 CNS
[22] = test system: EKVX NSCLC
[23] = test system: PC-3 prostate
[24] = test system: DU-145 prostate
[25] = test system: T-47D breast
[26] = test system: NCI-H226 lung
[27] = test system: HL-60(TB) leukemia
[28] = test system: NCI-H460 lung
[29] = test system: U251 CNS
[30] = test system: OVCAR-3 ovarian
[31] = test system: UACC-257 melanoma
[32] = test system: UO-31 renal
[33] = test system: LOX IMVI melanoma
[34] = test system: SK-MEL-5 melanoma
[35] = test system: SK-MEL-2 melanoma
[36] = test system: RXF 393 renal
[37] = test system: SNB-19 CNS
[38] = test system: SN12C renal
[39] = test system: KM12 colon
[40] = test system: COLO 205 colon
[41] = test system: M14 melanoma
[42] = test system: 786-0 renal
[43] = test system: HT29 colon
[44] = test system: CCRF-CEM leukemia
[45] = test system: SW-620 colon
[46] = test system: SK-OV-3 ovarian
[47] = test system: IGROV1 ovarian
[48] = test system: MDA-MB-231 breast
[49] = test system: NCI-H522 lung
[50] = test system: UACC-62 melanoma

In the case of `Cc1cc(-c2nc3sc(C)cn3c2/C=N/N=C(N)N)c(C)s1`, the GI50 [1] is reported as 17.6 µM, the TGI [1] is reported as 43.6 µM and the GI50 [2] is reported as 10.7 µM. It also gave a TGI [2] of 27.4 µM, a GI50 [3] of 17.4 µM and a TGI [3] of 32.4 µM. The GI50 [4] was 19.8 µM, the TGI [4] was 40 µM and the GI50 [5] was 3.03 µM. For the same compound, the TGI [5] was 8.21 µM, the GI50 [6] was 1.79 µM and the TGI [6] was 3.37 µM. It also gave a GI50 [7] of 2.13 µM, a TGI [7] of 4.79 µM and a GI50 [8] of 2.02 µM. The TGI [8] was 4.12 µM, the GI50 [9] was 18.7 µM and the TGI [9] was 34.4 µM. The GI50 [10] was > 100 µM, the TGI [10] was > 100 µM and the GI50 [11] was > 100 µM. The TGI [11] was > 100 µM, the GI50 [12] was 1.73 µM and the TGI [12] was 3.24 µM. For the same compound, the GI50 [13] was 13.2 µM, the TGI [13] was 28.1 µM and the GI50 [14] was 14.6 µM. For the same compound, the TGI [14] was 28.2 µM, the GI50 [15] was > 100 µM and the TGI [15] was > 100 µM. The GI50 [16] was 1.78 µM, the TGI [16] was 3.85 µM and the GI50 [17] was 21.5 µM. It also gave a TGI [17] of 48.9 µM, a GI50 [18] of 14.6 µM and a TGI [18] of 29.2 µM. The GI50 [19] was 3.17 µM, the TGI [19] was 8.64 µM and the GI50 [20] was 6.12 µM. It also gave a TGI [20] of 18.6 µM, a GI50 [21] of 13.6 µM and a TGI [21] of 28.9 µM. The GI50 [22] was 14.8 µM, the TGI [22] was 30.6 µM and the GI50 [23] was 3.65 µM. It also gave a TGI [23] of 15.5 µM, a GI50 [24] of 6.11 µM and a TGI [24] of 23 µM. The GI50 [25] was 3.56 µM, the TGI [25] was 13.8 µM and the GI50 [26] was 20.8 µM. For the same compound, the TGI [26] was 40.8 µM, the GI50 [27] was > 100 µM and the TGI [27] was > 100 µM. It also gave a GI50 [28] of 6.18 µM, a TGI [28] of 21.5 µM and a GI50 [29] of 11.2 µM. For the same compound, the TGI [29] was 25.5 µM, the GI50 [30] was 2.04 µM and the TGI [30] was 9.56 µM. It also gave a GI50 [31] of 22.2 µM, a TGI [31] of 44.2 µM and a GI50 [32] of 32.7 µM. The TGI [32] was > 100 µM, the GI50 [33] was 13.3 µM and the TGI [33] was 29.8 µM. For the same compound, the GI50 [34] was 1.89 µM, the TGI [34] was 3.8 µM and the GI50 [35] was 40.8 µM. The TGI [35] was > 100 µM, the GI50 [36] was 15 µM and the TGI [36] was 32.7 µM. It also gave a GI50 [37] of 18.2 µM, a TGI [37] of 36.2 µM and a GI50 [38] of 14 µM. It also gave a TGI [38] of 28.3 µM, a GI50 [39] of 2.68 µM and a TGI [39] of 9.62 µM. It also gave a GI50 [40] of 4.76 µM, a TGI [40] of 19 µM and a GI50 [41] of 1.7 µM. The TGI [41] was 3.11 µM, the GI50 [42] was 8.68 µM and the TGI [42] was 21.1 µM. The GI50 [43] was 3.74 µM, the TGI [43] was 20.2 µM and the GI50 [44] was 2.49 µM. The TGI [44] was 5.06 µM, the GI50 [45] was 3.33 µM and the TGI [45] was 18.4 µM. For the same compound, the GI50 [46] was 20.9 µM, the TGI [46] was 39.1 µM and the GI50 [47] was 28.8 µM. The TGI [47] was > 100 µM, the GI50 [48] was 3.49 µM and the TGI [48] was 16.3 µM. For the same compound, the GI50 [49] was 25.7 µM, the TGI [49] was > 100 µM and the GI50 [50] was 16.5 µM. It also gave a TGI [50] of 30.5 µM.
